Data published in PubChem BioAssay (NCI).
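The compound was tested at five concentrations on cells cultured in 96-well plates, with a 48-hour exposure period. At the GI50, growth is halved. At the TGI there is no net growth.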

Columns and labels:
Experiment in all cases: NCI-60 cell line screen, 48 h
TK-10 renal = test system: TK-10 renal
SN12C renal = test system: SN12C renal
SF-268 CNS = test system: SF-268 CNS
OVCAR-4 ovarian = test system: OVCAR-4 ovarian
OVCAR-3 ovarian = test system: OVCAR-3 ovarian
SK-OV-3 ovarian = test system: SK-OV-3 ovarian
A498 renal = test system: A498 renal
SK-MEL-28 melanoma = test system: SK-MEL-28 melanoma
CAKI-1 renal = test system: CAKI-1 renal
MOLT-4 leukemia = test system: MOLT-4 leukemia

Structure (SMILES) | GI50 (TK-10 renal) [µM] | TGI (TK-10 renal) [µM] | GI50 (SN12C renal) [µM] | TGI (SN12C renal) [µM] | GI50 (SF-268 CNS) [µM] | TGI (SF-268 CNS) [µM] | GI50 (OVCAR-4 ovarian) [µM] | TGI (OVCAR-4 ovarian) [µM] | GI50 (OVCAR-3 ovarian) [µM] | TGI (OVCAR-3 ovarian) [µM] | GI50 (SK-OV-3 ovarian) [µM] | TGI (SK-OV-3 ovarian) [µM] | GI50 (A498 renal) [µM] | TGI (A498 renal) [µM] | GI50 (SK-MEL-28 melanoma) [µM] | TGI (SK-MEL-28 melanoma) [µM] | GI50 (CAKI-1 renal) [µM] | TGI (CAKI-1 renal) [µM] | GI50 (MOLT-4 leukemia) [µM] | TGI (MOLT-4 leukemia) [µM]
C=C1CC2(OC1=O)C(=O)N(CCCN1C(=O)C3(CC(=C)C(=O)O3)c3ccccc31)c1ccccc12 (stereo not drawn) | 1.54 | 2.98 | 2.29 | 6.26 | 3.32 | 12 | 1.52 | 3.14 | 0.571 | 1.83 | 11.4 | 23.7 | 3.12 | 17 | 1.92 | 3.61 | 1.17 | 2.39 | 0.419 | 1.93
CC(=O)NNc1nc(C)c(C(=O)NNC(=O)C(=O)Nc2nc3ccc([N+](=O)[O-])cc3s2)s1 |  | > 100 |  | > 100 |  | > 100 |  | > 100 |  | 76.4 |  | > 100 |  | > 70.8 |  | > 100 |  | > 92.6 |  | > 100
COc1ccc(Nc2nc3ccccc3nc2-c2cccs2)cc1 |  | > 100 |  | > 100 |  | > 100 |  | > 100 |  | > 100 |  | > 100 |  | > 100 |  | > 100 |  | > 100 |  | > 100
CCSc1nc(N)c2cn[nH]c2n1 | 7.54 | 34.3 | 28.7 | 70.9 | 25.3 | 74.1 | 32.7 | 89 | 22.1 | 72.1 | 42.1 | > 100 | 20.7 | 50.2 | 33.2 | > 100 | 22.3 | 76 | 39.4 | > 100
COc1ccccc1/C=C/C(=O)/C=C/c1ccccc1O | 2.72 | 5.74 | 1.66 | 5.65 | 1.34 | 6.13 | 1.17 | 8.83 | 0.314 | 1 | 2.05 | 5.6 | 1.8 | 3.32 | 1.56 | 3.72 | 1.79 | 5.53 | 0.163 | 
COc1ccc(-c2nnc(N3CCN(C(=O)CN4CCN(c5ccc(OC)cc5)CC4)CC3)nc2-c2ccc(OC)cc2)cc1 | 19 | 62.5 | 3.2 | 15.5 | 3.62 | 14.2 | 3.47 | 12.5 | 2.1 | 4 | 20.8 | 45 | 25.8 | 50.4 | 13.4 | 34.6 | 15.5 | 51.1 | 1.63 | 3.8
CC/C(=N\NS(=O)(=O)c1ccccc1)c1ccccc1 |  | > 100 |  | > 100 |  | > 100 |  | > 100 |  | > 100 |  | > 100 |  | > 100 |  | > 100 |  | > 100 |  | > 100
O=C(O)CCC(NC(=S)S)C(=O)O.[Na+].[Zn+2] (stereo not drawn) | > 50 | > 50 | > 50 | > 50 | > 50 | > 50 | > 50 | > 50 | > 50 | > 50 | > 50 | > 50 | > 50 | > 50 | > 50 | > 50 | > 50 | > 50 | > 50 | > 50
C[C@H](Cn1ncnn1)Nc1ncc2cc(Oc3ccc(F)cc3F)c(=O)n(C)c2n1 | > 25 | > 25 | > 25 | > 25 | > 25 | > 25 | > 25 | > 25 | > 25 | > 25 | > 25 | > 25 | > 25 | > 25 | > 25 | > 25 | > 25 | > 25 | > 25 | > 25
CCCCCCCCCCCC[n+]1ccccc1 (tested in a mixture with another compound) | 0.427 | 1.86 | 1.19 | 3.43 | 1.2 | 3.44 | 0.683 | 12.4 | 0.722 | 2.44 | 1.16 | 3.74 | 1.84 | 7.25 | 1.35 | 3.53 | 1.01 | 9.03 | 1.34 | 4.78
Cc1ccc2nc3c(Cl)c(C)c(=O)cc-3sc2c1 | > 100 | > 100 | 69 | > 100 | 43.6 | > 100 | 61.7 | > 100 | 50.2 | > 100 | > 100 | > 100 |  | > 100 | > 100 | > 100 | > 100 | > 100 |  | > 100
Cc1ccccc1Nc1nc2c(s1)C(=O)c1ccccc1C2=O |  | 38.4 |  | 6.32 |  | 13 |  | 5.13 |  | 5.31 |  | 38 |  | 39.5 |  | 27.7 |  | 30.3 |  | > 24.3
O=C1C(SCCO)=C(SCCO)C(=O)c2ccccc21 |  | 3.39 |  | 3.06 |  | 3.21 |  | 0.671 |  | 3.22 |  | 3.08 |  | 1.35 |  | 3.18 |  | 4.24 |  | 0.481
CC(=O)[CH-]C(C)=O.[CH2-]C.[CH2-]C.[Tl+3] | > 100 | > 100 | > 100 | > 100 | > 100 | > 100 | > 100 | > 100 | > 100 | > 100 | > 100 | > 100 | > 100 | > 100 | > 100 | > 100 | > 100 | > 100 | > 100 | > 100
COc1ccccc1-c1cc(=O)c2ccc(C)nc2[nH]1 |  | > 100 |  | > 100 |  | > 100 |  | > 100 | > 100 | > 100 |  | > 100 |  | > 100 |  | > 100 |  | > 100 |  | > 100
